System: 777334-354-R2-J4-PDC tumor spheroids with HUVEC/MSC, viability
Assay: Anticancer human tumor 777334-354-R2-J4-PDC patient-derived pancreatic adenocarcinoma cell line growth inhibition [GQUAD]
Details: for IC50: curve of first compound; for viability, T/C: stronger effect = lower value
From the text: DNA G-quadruplex Stabilizer Agents in Combinations in Complex Spheroids
A high-throughput screen of multi-cell type tumor spheroids was designed to identify active combinations of DNA G-quadruplex stabilizer agents and targeted small molecules. Complex spheroids include a stromal component modeled by human endothelial cells (HUVEC) and fibroblasts modeled by human mesenchymal stem cells (MSCs). The concentration ranges selected for each drug and investigational agent were based upon clinically achievable concentrations if the clinical Cmax of the agent was known.
Compounds. The drugs and investigational agents: pidnarulex (CX-5461; NSC782164), APTO-253 (NSC789042), BRACO-19 (NSC847499), peposertib (NSC802822), ceralasertib (NSC780249), elimusertib (NSC800525), camonsertib (NSC841442), AZD-1390 (NSC803789), olaparib (NSC753686), talazoparib (NSC767125), ART-558 (NSC835418), sotorasib (NSC818433), MRTX-1133 (NSC836407), SN-38 (NSC673596), topotecan (NSC609699), etoposide (NSC141540), doxorubicin (NSC123127), gemcitabine (NSC613327), 5-fluorouracil (NSC19893), paclitaxel (NSC125973), vemurafenib (NSC761431), panobinostat (NSC761190), R-306465 (JNJ-16241199; NSC773264), adavosertib (NSC754352), TP-3654 (NSC805149), carboplatin (NSC241240), KSQ-4279 (NSC840948), and staurosporine (NSC755774) were obtained from the National Cancer Institute (NCI) Developmental Therapeutics Program Chemical Repository (34). The FDA-approved anticancer drug set is available from the NCI Developmental Therapeutics Program. […] The stock solutions were prepared in dimethyl sulfoxide (DMSO, Sigma-Aldrich, St. Louis, MO, cat. D2650) at 800-fold the tested concentration and stored at -70 degrees C prior to their use. All drugs and investigational agents were tested over a range starting from a high concentration at or near the clinical Cmax and decreasing in half-log increments. If the clinical Cmax for an agent had not been determined, the highest concentration tested was 10 microM.
2.3 Cell Culture. All cells were maintained in an incubator at 37 degrees C and 5% CO2 with 95% humidity. The PDC lines were cultured according to standard operating procedures established by the NCI PDMR. All PDCs were thawed and cultured in Matrigel-coated flasks prepared with a working solution of 1X Ham's F-12 nutrient mix, without supplementation (Invitrogen, cat. 11765054), 100 U/mL penicillin-streptomycin (Invitrogen, cat. 15140122), and 2.5% Matrigel (Corning Inc., cat. 354248) for the first three passages. The 857933-349-R-J2-PDC line was cultured in 6C/Colon 1B media, which includes advanced DMEM/F-12 (Thermo Fisher Scientific, cat. 12634028), 10 mM HEPES (Thermo Fisher Scientific, cat. 15630080), 1X GlutaMAX supplement (Thermo Fisher Scientific, cat. 35050061), 0.1 mg/mL primocin (InvivoGen, cat. ant-pm-2), 10% defined fetal bovine serum, heat inactivated (HyClone Laboratories Inc., cat. SH30070.03HI), 50% L-WRN conditioned media (ATCC, cat. CRL-3276), 1.25 mM N-Acetyl-L-cysteine (Sigma-Aldrich, cat. A9165), 10 mM nicotinamide (Sigma-Aldrich, cat. N0636), 1X B-27 supplement (Thermo Fisher Scientific, cat. 17504044), 1X N-2 supplement (Thermo Fisher Scientific, cat. 17502048), 10 microM Y-27632 dihydrochloride (Tocris Bioscience, cat. 1254), and 50 ng/mL human EGF recombinant protein (Thermo Fisher Scientific, cat. PHG0311). The 485176-168-R4-J1-PDC line was cultured in Panc media, which includes all 6C/Colon 1B media components plus 100 ng/mL human FGF-10 (Thermo Fisher Scientific, cat. 100-26), 500 nM SB-431542 (Selleckchem, cat. S1067), and gastrin (Tocris, cat. 3006).
[…]

[1] = second compound 0.0316 µM, first compound 0.0316 µM
[2] = second compound 0.0316 µM, first compound 0.1 µM
[3] = second compound 0.0316 µM, first compound 0.316 µM
[4] = second compound 0.0316 µM, first compound 1 µM
[5] = second compound 0.0316 µM, first compound 3.16 µM
[6] = second compound 0.0316 µM, first compound 10 µM
[7] = second compound 0.1 µM, first compound 0.0316 µM
[8] = second compound 0.1 µM, first compound 0.1 µM
[9] = second compound 0.1 µM, first compound 0.316 µM
[10] = second compound 0.1 µM, first compound 1 µM
[11] = second compound 0.1 µM, first compound 3.16 µM
[12] = second compound 0.1 µM, first compound 10 µM
[13] = second compound 0.316 µM, first compound 0.0316 µM
[14] = second compound 0.316 µM, first compound 0.1 µM
[15] = second compound 0.316 µM, first compound 0.316 µM
[16] = second compound 0.316 µM, first compound 1 µM
[17] = second compound 0.316 µM, first compound 3.16 µM
[18] = second compound 0.316 µM, first compound 10 µM
[19] = second compound 1 µM, first compound 0.0316 µM
[20] = second compound 1 µM, first compound 0.1 µM
[21] = second compound 1 µM, first compound 0.316 µM
[22] = second compound 1 µM, first compound 1 µM
[23] = second compound 1 µM, first compound 3.16 µM
[24] = second compound 1 µM, first compound 10 µM
[25] = second compound 3.16 µM, first compound 0.0316 µM
[26] = second compound 3.16 µM, first compound 0.1 µM
[27] = second compound 3.16 µM, first compound 0.316 µM
[28] = second compound 3.16 µM, first compound 1 µM
[29] = second compound 3.16 µM, first compound 3.16 µM
[30] = second compound 3.16 µM, first compound 10 µM
[31] = second compound 10 µM, first compound 0.0316 µM
[32] = second compound 10 µM, first compound 0.1 µM
[33] = second compound 10 µM, first compound 0.316 µM
[34] = second compound 10 µM, first compound 1 µM
[35] = second compound 10 µM, first compound 3.16 µM
[36] = second compound 10 µM, first compound 10 µM
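Note: spheroids exposed to compounds for 7 days before readout.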

CC1COCCN1c1cc(C2(O)CC3CCC(C2)O3)c2cnn(-c3ccn[nH]3)c2n1 (centres undefined) + Cc1[nH]c2ccc(F)cc2c1-c1nc2c3cccnc3c3ncccc3c2[nH]1
IC50 (second compound 0.0316 µM): 302 nM | IC50 (second compound 0.1 µM): 364 nM | IC50 (second compound 0.316 µM): 384 nM | IC50 (second compound 1 µM): 186 nM | IC50 (second compound 3.16 µM): < 31.6 nM | IC50 (second compound 10 µM): < 31.6 nM | viability, T/C [1]: 93.8% | viability, T/C [2]: 59.3% | viability, T/C [3]: 52.8% | viability, T/C [4]: 38.3% | viability, T/C [5]: 33.2% | viability, T/C [6]: 19% | viability, T/C [7]: 98.7% | viability, T/C [8]: 66.1% | viability, T/C [9]: 56% | viability, T/C [10]: 36.5% | viability, T/C [11]: 31.9% | viability, T/C [12]: 23% | viability, T/C [13]: 84.6% | viability, T/C [14]: 67.1% | viability, T/C [15]: 50.6% | viability, T/C [16]: 39.8% | viability, T/C [17]: 31.4% | viability, T/C [18]: 20.8% | viability, T/C [19]: 66.8% | viability, T/C [20]: 56% | viability, T/C [21]: 44.9% | viability, T/C [22]: 31.6% | viability, T/C [23]: 21.3% | viability, T/C [24]: 16.9% | viability, T/C [25]: 25.2% | viability, T/C [26]: 18.8% | viability, T/C [27]: 11.6% | viability, T/C [28]: 8.38% | viability, T/C [29]: 6.83% | viability, T/C [30]: 4.02% | viability, T/C [31]: 21.8% | viability, T/C [32]: 16.9% | viability, T/C [33]: 12.8% | viability, T/C [34]: 7.12% | viability, T/C [35]: 7.7% | viability, T/C [36]: 4.01%

O=c1[nH]cc(F)c(=O)[nH]1 + Cc1[nH]c2ccc(F)cc2c1-c1nc2c3cccnc3c3ncccc3c2[nH]1
IC50 (second compound 0.0316 µM): > 10000 nM | IC50 (second compound 0.1 µM): > 10000 nM | IC50 (second compound 0.316 µM): > 10000 nM | IC50 (second compound 1 µM): > 10000 nM | IC50 (second compound 3.16 µM): < 31.6 nM | IC50 (second compound 10 µM): < 31.6 nM | viability, T/C [1]: 95.5% | viability, T/C [2]: 93.3% | viability, T/C [3]: 105% | viability, T/C [4]: 82.5% | viability, T/C [5]: 71.3% | viability, T/C [6]: 61.5% | viability, T/C [7]: 113% | viability, T/C [8]: 100% | viability, T/C [9]: 103% | viability, T/C [10]: 72% | viability, T/C [11]: 80.8% | viability, T/C [12]: 61.7% | viability, T/C [13]: 89.1% | viability, T/C [14]: 103% | viability, T/C [15]: 86.1% | viability, T/C [16]: 76.8% | viability, T/C [17]: 79.4% | viability, T/C [18]: 67.5% | viability, T/C [19]: 74.7% | viability, T/C [20]: 89.5% | viability, T/C [21]: 72.9% | viability, T/C [22]: 61.1% | viability, T/C [23]: 68.7% | viability, T/C [24]: 53.3% | viability, T/C [25]: 44.6% | viability, T/C [26]: 38.4% | viability, T/C [27]: 31.2% | viability, T/C [28]: 28.8% | viability, T/C [29]: 27.7% | viability, T/C [30]: 25% | viability, T/C [31]: 29.6% | viability, T/C [32]: 29.1% | viability, T/C [33]: 24.5% | viability, T/C [34]: 17.4% | viability, T/C [35]: 16.4% | viability, T/C [36]: 18.5%

Source: PubChem BioAssay AID2060499 (Molecular Pharmacology Branch, DTP, NCI, 2025)
